Patent publication US5364615A (priority 1992, dated 1994)
“And” between values parts separate entries of the source, which are not always exact repeats. Equal values may be shown once. “Also recorded” adds a separate entry of the source. Read-outs that look alike come from different tables or passages of the source.

Key:
Pneumocystis carinii [1] = experiment: Prevention of PCP, different dosages and regimens (Example 6); format: in vivo, human
Source text: A total of 438 participants were selected on the basis of seropositivity for HIV, and were stratified on the basis of (i) prior PCP (n=250), (ii) Kaposi's sarcoma (n=59), or (iii) ARC (n=129).

[2] = cited from earlier work
Pneumocystis carinii [3] = conditions: human, in vivo
Source text: The initial diagnosis of P. carinii pneumonia was based on finding the organism in induced sputum or bronchoalveolar lavage specimens.
Treatment was as described in Example 3.
(§1) Chest radiographs and arterial blood gas tensions were obtained as clinically indicated.

Pneumocystis carinii [4] = format: in vivo, human
Pneumocystis carinii [5] = experiment: Randomized trial 300 mg twice per month vs 600 mg once per month (Example 7); format: in vivo, human
Source text: Five patients who developed PCP within 28 days were not evaluated. One hundred (66%) of the patients were concurrently receiving AZT, and 42 (28%) had experienced one prior episode of PCP.

[6] = Delivery efficiency, nebulizer retention and lung half-life of aerosolized pentamidine; set-up: species or system human
Source text: As indicated above, Pneumocystis carinii infect the alveoli. […] It should also be understood that the amount of pentamidine deposited in the alveoli may be substantially less than the total amount aerosolized since a large portion is exhaled by the patient or is trapped on the interior surfaces of the nebulizer apparatus. […] This is true regardless of the dose size, duration of inhalation, and type of nebulizer used, Respirgard or Ultravent. […] Furthermore, even with minimization of airway deposition, there is a portion which is still deposited in the patient's airways.
The "amount nebulized" or "amount aerosolized" of the drug means the amount that actually leaves the apparatus as an aerosol, i.e., the amount placed into the apparatus less the amount retained in the reservoir and on the inner surfaces of the apparatus at the conclusion of a treatment session. "[…] of pentamidine delivered to the alveoli" refers to the amount of drug that is estimated to actually reach the alveoli.

[7] = Pentamidine concentrations in lavage fluid and plasma, HPLC (Example 1); format: in vivo, human
Protocol: For six inhalation patients (1, 4, 6, 7, 15, and 16) and five i.v. patients (2, 3, 5, 8, and 22), plasma samples were obtained at the completion of therapy and at 0.17, 0.5, 1, 1.5, 2, 2.5, 3, 4, 5, 6, 8, 10, 12, and 18 hours following initiation of therapy. For patients 9-14 and 17-21, trough and peak plasma samples were collected for the first three days, then weekly during therapy. Trough and peak samples were obtained on days 2, 3, 4, 5, 7, 11, and 13 for patient 2, days 2, 3, 4, 5, 7, and 12 for patient 3, days 2, 3, 4, 5, 13 and 18 for patient 5, and days 2, 3, 4, 5, and 11 for patient 8.

[8] = in vivo
Pneumocystis carinii [9] = experiment: Treatment of Pneumocystis carinii pneumonia, inhaled vs intravenous pentamidine (Example 1); format: in vivo, human
[10] = human, in vivo
Source text: as §1

[11] = Toxicity during PCP treatment (Example 1)
[12] = single 4 mg/kg intravenous dose, AIDS patients with P. carinii; cited from earlier work
[13] = literature, cited from earlier work
[14] = 13 patients treated successfully
[15] = intravenous 4 mg/Kg, 18-24 h, per patient, 4 mg/kg

Compound: N=C(N)c1ccc(OCCCCCOc2ccc(C(=N)N)cc2)cc1 [pentamidine, p,p'-(pentamethylenedioxy)dibenzamidine]
- mortality rate (Pneumocystis carinii [1]; 372 participants): 1.6%
- relapse rate (Pneumocystis carinii [1]; 372 participants, at least one treatment): 4.6%
- deaths due to PCP (Pneumocystis carinii [1]; ARC, group a, 30 mg): 1
- PCP Events (Pneumocystis carinii [1]; ARC, group a, 30 mg every two weeks): 2
- PCP Events (Pneumocystis carinii [1]; ARC, group b, 150 mg every two weeks): 0
- PCP Events (Pneumocystis carinii [1]; ARC, group c, 300 mg every four weeks): 0
- PCP Events (Pneumocystis carinii [1]; Kaposi's, group a, 30 mg every two weeks): 0
- PCP Events (Pneumocystis carinii [1]; Kaposi's, group b, 150 mg every two weeks): 1
- PCP Events (Pneumocystis carinii [1]; Kaposi's, group c, 300 mg every four weeks): 0
- relapse rate (Pneumocystis carinii [1]; at least three treatments): 3.2%
- participants experiencing relapse (Pneumocystis carinii [1]; of 372 participants): 17
- relapse rate (Pneumocystis carinii [1]; prior PCP, at least one treatment, historical controls 24.3%): 5.9%
- relapse rate (Pneumocystis carinii [1]; prior PCP, three or more treatments): 4.2%
- deaths due to PCP (Pneumocystis carinii [1]; prior PCP, group a, 30 mg): 1
- PCP Events (Pneumocystis carinii [1]; prior PCP, group a, 30 mg every two weeks): 6
- deaths due to PCP (Pneumocystis carinii [1]; prior PCP, group b, 150 mg): 3
- PCP Events (Pneumocystis carinii [1]; prior PCP, group b, 150 mg every two weeks): 5
- deaths due to PCP (Pneumocystis carinii [1]; prior PCP, group c, 300 mg): 1
- PCP Events (Pneumocystis carinii [1]; prior PCP, group c, 300 mg every four weeks): 3
- patients developing severe toxicity requiring discontinuation ([2]; TMP-SMX oral/parenteral or pentamidine isethionate parenteral): approximately 50%
- side effects ([2]; parenteral pentamidine): elevation of liver enzymes, hematologic disturbances with neutropenia and thrombocytopenia, fever, hypocalcemia, and hallucinations
- impaired renal function ([2]; patients receiving (parenteral) pentamidine): about 25%
- clinical response (hypoxia, fever, dyspnea, radiographs) (Pneumocystis carinii [3]): none of the patients were hypoxic or febrile, all had improvement in dyspnea, and all had current or subsequent chest radiographs indicating roentrographic improvement of infiltrates
- completion of therapy (Pneumocystis carinii [3]): All patients successfully completed therapy
- relapse (Pneumocystis carinii [4]; 13 patients followed 2-4 months): No patient presented evidence of relapse
- arterial oxygenation and vital capacity (Pneumocystis carinii [4]; [14]): Eleven of the 13 patients showed improvements of their arterial oxygenation and vital capacity
- dyspnea, respiratory rate and fever (Pneumocystis carinii [4]; [14]): marked reduction in dyspnea, respiratory rate and fever
- radiographic improvement (Pneumocystis carinii [4]; [14]): 4 had radiographic improvement beginning by the second week of therapy and Five patients showed worsened radiographic infiltrates at one week with subsequent improvement and remaining 4 patients had worsened radiographic infiltrates or no improvement for the first two weeks of therapy, then improvement
- overall efficacy rate (Pneumocystis carinii [4]; 95% confidence limits, 58% to 98%): 87%
- Pre therapy DLCO (Pneumocystis carinii [4]; baseline): 64.9 percent predicted
- Pre therapy PaO2 (Pneumocystis carinii [4]; baseline): 67.9 torr
- Pre therapy Vital Capacity (Pneumocystis carinii [4]; baseline): 50.8 percent predicted
- subjective and objective improvement (Pneumocystis carinii [4]; human, in vivo): Thirteen of 15 patients had subjective and objective improvement
- time of clinical improvement (Pneumocystis carinii [4]; human, in vivo): Ten patients had clinical improvement in the first week of therapy, and 3 patients during the second week of therapy
- Successful Treatment W/ Change, % (Pneumocystis carinii [4]; n = 15): 93%
- Successful Treatment w/o Change, % (Pneumocystis carinii [4]; n = 15): 86%
- treatment failure / death (Pneumocystis carinii [4]; one patient with concomitant tuberculosis therapy, changed to TMP-SMX on day 7): died of progressive respiratory failure
- Post therapy DLCO (Pneumocystis carinii [4]; post therapy): 61.7 percent predicted
- Post therapy PaO2 (Pneumocystis carinii [4]; post therapy): 80.1 torr
- Post therapy Vital Capacity (Pneumocystis carinii [4]; post therapy): 61.8 percent predicted
- BAL sediment concentration, aerosol vs intravenous (18-24 h): 10-100 fold
- mean BAL supernatant (aerosol) vs BAL sediment (intravenous), factor (18-24 h): more than 2
- BAL sediment concentration, Mean ± SEM (aerosol 300 mg, 18-24 h): 705 ± 242 ng/mL
- BAL supernatant concentration, Mean ± SEM (aerosol 300 mg, 18-24 h): 23.2 ± 7.75 ng/mL
- systemic absorption (after aerosol administration): Little or no systemic absorption was detectable
- BAL sediment concentration, Mean ± SEM (intravenous 4 mg/Kg, 18-24 h): 9.34 ± 1.74 ng/mL
- BAL supernatant concentration, Mean ± SEM (intravenous 4 mg/Kg, 18-24 h): 2.64 ± 0.73 ng/mL
- BAL sediment concentration [15]: 12.8 ng/mL and 6.89 ng/mL and 8.35 ng/mL
- BAL supernatant concentration [15]: 1.48 ng/mL and 2.44 ng/mL and 4.0 ng/mL
- response to standard therapy (patients infected with P. carinii, either intravenous pentamidine or TMP-SMX): All patients infected with P. carinii responded to standard therapy
- attack rate of PCP at 6.38 months (Pneumocystis carinii [5]; 300 mg once per month, previous study): 18%
- attack rate of PCP (Pneumocystis carinii [5]; 300 mg twice per month): 5.6%
- attack rate of PCP (Pneumocystis carinii [5]; 600 mg once per month): 8.1%
- patients who developed PCP (Pneumocystis carinii [5]; mean duration 10.6 months, 10 patients): 6.8%
- attack rate of PCP at 6.38 months (Pneumocystis carinii [5]; this trial, p<0.01 vs 300 mg once per month): 3%
- amount delivered to the alveoli ([6]; 300 mg placed in nebulizer, estimate): about 21 mg
- absorbed dose ([6]; 600 mg in 6 mL, Respirgard II, 3-4 mL nebulized, estimate): 45 to 60 mg
- amount delivered to the alveoli ([6]; 600 mg placed in nebulizer, estimate): about 42 mg
- dose remaining in the nebulizer after inhalation ([6]; Respirgard or UltraVent, regardless of dose): approximately one third of the pentamidine dose that is placed into the nebulizer remains in the nebulizer
- fraction of total dose delivered to the alveoli ([6]; estimate based on Mallinckrodt technical specifications): about 7%
- half-life ([6]; human, lung, inhaled or intranasal, read-out: halflife in the lungs): 21 to 42 days
- efficiency of delivery by inhalation ([6]; to alveoli, estimate): 7-10%
- concentration at 288 h ([7]; human, bronchoalveolar lavage fluid, inhaled or intranasal, inhalation, patient 4, day 12, read-out: mean concentration in repeat lavage): 178 ± 28 ng/mL
- concentration at 1656 h ([7]; human, bronchoalveolar lavage fluid, inhaled or intranasal, inhalation, patient 4, day 69 following completion of therapy, read-out: mean concentration in repeat lavage): 5.61 ± 0.78 ng/mL
- concentration at 360 h ([7]; human, bronchoalveolar lavage fluid, inhaled or intranasal, inhalation, patient 6, day 15, read-out: mean concentration in repeat lavage): 63 ± 22 ng/mL
- concentration at 360 h ([7]; human, bronchoalveolar lavage fluid, inhaled or intranasal, inhalation, patient 12, day 15, read-out: mean concentration in repeat lavage): 45.7 ± 0.9 ng/mL
- concentration at 1128 h ([7]; human, bronchoalveolar lavage fluid, inhaled or intranasal, inhalation, patient 14, day 47, read-out: mean concentration in repeat lavage): 3 ± 0.5 ng/mL
- concentration at 48 h ([7]; human, bronchoalveolar lavage fluid, iv, patient 2, day 2): 10.9 ± 2.9 ng/mL
- concentration at 144 h ([7]; human, bronchoalveolar lavage fluid, iv, patient 5, day 6): 3.4 ± 0.2 ng/mL
- Cmax ([7]; human, plasma, iv, read-out: maximum plasma concentration during remainder of therapy, mean): 497 ± 451 ng/mL
- plasma samples without detectable drug ([7]; inhalation): approximately two-thirds of the plasma samples contained no detectable drug
- lavage fluid concentration, inhalation vs iv ([7]; inhalation patients higher than iv-treated): approximately 10 fold
- Plasma max during treatment ([7]; inhalation, highest concentration during remainder of therapy, per patient): 6.1 ng/mL and 21.8 ng/mL and 7.8 ng/mL and 5.0 ng/mL and 13.0 ng/mL and 45.4 ng/mL and 12.3 ng/mL and 6.9 ng/mL and 29.5 ng/mL and 11.5 ng/mL and 79.2 ng/mL and 23.2 ng/mL
- Mean concentration in lavage fluid ([7]; inhalation, mean ± SD in (N) consecutive lavages, per patient): 55.3 ± 17.1 ng/mL and 28.6 ± 10 ng/mL and 66.8 ± 16 ng/mL and 30.6 ± 27.5 ng/mL and 16.8 ± 7.3 ng/mL and 49.1 ± 22.5 ng/mL and 149.7 ± 87.2 ng/mL and 92.4 ± 53.9 ng/mL
- Plasma conc. on Day 1 ([7]; inhalation, peak during inhalation (patients 1, 4, 6, 7, 15, 16) or at end of inhalation (10-14, 17)): 0.0 ng/mL
- Time to max conc. ([7]; inhalation, plasma, per patient): 5 days and 2 days and 1 days and 3 days and 14 days and 8 days
- mean plasma concentration ([7]; intravenous, at completion of first infusion): 179 ± 185 ng/mL
- adverse systemic reactions (renal, liver, hematologic, hypoglycemia, hypotension) [8]: No adverse systemic reactions
- coughing with larger particles [8]: most subjects began coughing within a few breaths
- Outcome of therapy (Pneumocystis carinii [9]; inhalation 4 mg/Kg, UltraVent, per patient): failed; also recorded: success
- satisfactory response rate (Pneumocystis carinii [9]; inhalation therapy, evaluable patients): 90%
- treatment failures (Pneumocystis carinii [9]; inhalation, 4 of 13 patients): 31%
- responded satisfactorily (Pneumocystis carinii [9]; inhalation, 9 of 13 patients): 69%
- Time to discharge (Pneumocystis carinii [9]; inhalation, all patients in group, based on 9 successful patients): 15 ± 1 days
- satisfactory outcome (patients) (Pneumocystis carinii [9]; inhalation, of ten evaluated patients): nine had a satisfactory outcome
- died in the hospital (Pneumocystis carinii [9]; inhalation, one patient): 7.7%
- Time to discharge (Pneumocystis carinii [9]; inhalation, per patient (patient 9 died on day 9)): 27 days and 17 days and 16 days and 15 days and 14 days and 13 days
- satisfactory outcome (patients) (Pneumocystis carinii [9]; intravenous): Eight of nine iv-treated patients exhibited a satisfactory outcome
- Outcome of therapy (Pneumocystis carinii [9]; intravenous 3 mg/Kg, per patient, 3 mg/kg): success; also recorded: failed
- Time to discharge (Pneumocystis carinii [9]; intravenous, based on 8 successful patients): 14 ± 2 days
- responded satisfactorily (Pneumocystis carinii [9]; intravenous, eight of nine): 89%
- relapse (Pneumocystis carinii [9]; intravenous, four patients followed five to six months): no reported relapses
- Time to discharge (Pneumocystis carinii [9]; intravenous, per patient): 14 days and 12 days and 18 days and 13 days and 16 days
- severe adverse reactions [10]: No patient developed any severe adverse reactions
- glucose ([11]; approximately 165 determinations): > 3.9 mmol/L
- minor toxicity ([11]; inhalation): One inhalation patient (16) experienced minor toxicity (rash)
- major toxicity ([11]; inhalation, two of ten evaluable (neutropenia; both also received AZT)): 20%
- minor toxicity ([11]; intravenous, elevated serum creatinine in three, depressed leukocyte count in one): occurred in four iv-treated patients
- leukocyte count ([11]; intravenous, patient 18 after ten days): 6e+08 L⁻¹
- major toxicity ([11]; intravenous, two of nine (neutropenia, hepatotoxicity)): 22%
- change of therapy due to toxicity ([11]; iv-treated patients, two of 19 evaluated as printed): 11%
- mean peak serum pentamidine concentration [12]: 612 ng/mL
- Toxicity Req Change of Therapy, % [13]: 55%
- rate of severe reactions ([13]; parenteral pentamidine, TMP-SMX): 50%
